Measurements published in patent US20240409543A1, “PYRROLOPYRAZOLE SPIRO COMPOUND” (CHIA TAI TIANQING PHARMACEUTICAL GROUP CO., LTD., priority 2021, published 2024).

Tests used:
[1] = system: MiaPaCa-2 cells (MIAPACA2_PANCREAS); experiment: Anti-proliferation experiment on tumor cells with KRAS mutations, MiaPaCa-2 (3D CellTiter-Glo); assay type: cell-based; details: Homo sapiens, MIA PaCa-2, 72 h, 3 days incubation with compound, ultra-low attachment plate
Excerpt: (§1) Cell culture medium, penicillin/streptomycin antibiotics purchased from Wisent, and fetal bovine serum purchased from Biosera; 3D CellTiter-Glo (chemiluminescence detection reagent for cell viability) reagent purchased from Promega; Cell lines purchased from Nanjing Cobioer Biosciences Co., Ltd. and Wuhan Procell Life Science & Technology Co., Ltd; and Envision multimode microplate reader (PerkinElmer).
(§2) Different types of tumor cells were each seeded in an ultra-low attachment 96-well U-bottom plate, with 80 μL of cell suspension per well. The cell plate was incubated in a CO2 incubator overnight.
(§3) Each test compound was diluted in a 5-fold gradient to the 9th concentration (i.e., from 2 mM to 5.12 nM or from 200 μM to 0.512 nM) using a multi-channel pipette, with duplicate wells set up. 78 μL of medium was added to an intermediate plate, and the serially diluted compound was transferred to the corresponding wells of the intermediate plate at 2 μL/well. The mixture was mixed well and then transferred to the cell plate at 20 µL/well. The concentration of the compound transferred to the cell plate ranged from 10 μM to 0.0256 nM or from 1 μM to 0.00256 nM. The cell plate was then incubated in a CO2 incubator for 3-6 days.
(§4) The chemiluminescence detection reagent for cell viability was added to the cell plate at 100 μL/well, and the luminescence signals were stabilized by incubation for 10 min at room temperature. Readings were taken using the multimode microplate reader.
(§5) The original data were converted to inhibition rates and then the IC50 values were obtained by curve fitting using a four-parameter method (obtained from the “log(inhibitor) vs. response—Variable slope” model in GraphPad Prism). Table 2 illustrates the inhibitory activity of the compounds disclosed herein against the proliferation of different types of tumor cells.

[2] = system: H358 cells (NCIH358_LUNG); experiment: Anti-proliferation experiment on tumor cells with KRAS mutations, H358 (3D CellTiter-Glo); assay type: cell-based; details: Homo sapiens, NCI-H358, 120 h, 5 days incubation with compound, ultra-low attachment plate
Excerpt: as §1, §2, §3, §4, §5

SHP2 = molecular target: T1, SHP2 (Homo sapiens, UniProt Q06124); experiment: SHP2 in-vitro enzymology experiment (Homogeneous Full Length SHP-2 Assay Kit, DiFMUP substrate); assay type: biochemical; details: 60 min pre-incubation, 30 min reaction at 25° C.
T1 construct: Homogeneous Full Length SHP-2 Assay Kit (purchased from BPS Bioscience); purchased BPS Bioscience
T1 sequence (Q06124 1-593): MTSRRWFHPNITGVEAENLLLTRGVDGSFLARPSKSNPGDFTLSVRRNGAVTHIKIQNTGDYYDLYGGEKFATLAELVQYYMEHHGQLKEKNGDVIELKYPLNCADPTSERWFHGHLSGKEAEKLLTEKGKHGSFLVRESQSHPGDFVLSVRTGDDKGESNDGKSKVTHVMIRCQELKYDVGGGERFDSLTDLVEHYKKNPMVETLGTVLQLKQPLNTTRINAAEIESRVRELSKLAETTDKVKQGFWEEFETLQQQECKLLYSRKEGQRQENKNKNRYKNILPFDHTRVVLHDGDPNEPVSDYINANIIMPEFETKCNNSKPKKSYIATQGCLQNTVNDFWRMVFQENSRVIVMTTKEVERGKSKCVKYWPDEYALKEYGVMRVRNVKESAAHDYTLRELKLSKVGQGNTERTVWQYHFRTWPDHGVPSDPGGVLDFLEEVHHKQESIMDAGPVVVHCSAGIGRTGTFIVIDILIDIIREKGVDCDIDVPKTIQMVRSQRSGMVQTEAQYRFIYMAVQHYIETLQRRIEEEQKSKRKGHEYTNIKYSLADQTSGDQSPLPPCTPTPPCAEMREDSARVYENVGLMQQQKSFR
Method: Experimental materials: Homogeneous Full Length SHP-2 Assay Kit (purchased from BPS Bioscience) and NIVO multimode microplate reader.
Preparation of 1× buffer (ready-to-use): 5× buffer was diluted with deionized water to give 1× buffer, which was then placed on ice for later use.
Each test compound was diluted with 100% DMSO to 100 μM as the first concentration, and then diluted in a 4-fold gradient to the 8th concentration (i.e., from 100 μM to 6.1 nM) using a multi-channel pipette. Each gradient of the test compound was diluted with 1× buffer to prepare a working solution with 10% DMSO. The resulting solution was then added to the corresponding wells of a plate at 5 μL/well, with duplicate wells set up. The plate was then centrifuged at 1000 rpm for 1 min.
18 μL of a prepared reaction mixed solution (containing 12.25 μL of deionized water, 5 μL of 5× buffer; 0.25 μL of SHP-2 substrate polypeptide (100 μM), and 0.5 μL of DTT (250 mM)) was added to each well. The plate was then centrifuged at 1000 rpm for 1 min.
An SHP-2 enzyme was diluted to 0.1 ng/μL with 1× buffer. The resulting solution was added to the corresponding wells at 2 μL/well, and 2 μL of 1× buffer and […] were added to each negative control well. This step was performed on ice. The reaction system was then incubated at 25° C. for 60 min for compound pre-incubation.
After the compound pre-incubation was completed, 25 μL of a substrate working solution (containing 19.45 μL of deionized water, 5 μL of 5× buffer; 0.5 μL of DTT (250 mM), and 0.05 μL of SHP-2 Substrate (DiFMUP) (10 mM)) was added to each well, and the reaction system was allowed to react at 25° C. for 30 min. At that time, the final concentration gradient of the compound ranged from 1 μM to 0.061 nM. After the reaction was completed, the fluorescence values were read using the NIVO multimode microplate reader, with an excitation wavelength of 360 nm and an emission wavelength of 460 nm.
Detection of compound background reading values: Each gradient of the test compound diluted with 100% DMSO was added to a new compound plate at 5 μL/well, and then 1× buffer was added at 45 μL/well to achieve a 10-fold dilution to prepare a working solution with 10% DMSO. Next, the compound working solution was added to the detection plate at 5 μL/well, and then 1× buffer was added at 45 μL/well to achieve another 10-fold dilution, bringing the final concentration of DMSO to 1%. The plate was then centrifuged at 1000 rpm for 1 min. The fluorescence values were read using the multimode microplate reader, with an excitation wavelength of 360 nm and an emission wavelength of 460 nm.
The original data were converted to inhibition rates and the IC50 values were obtained by curve fitting using a four-parameter method.

[3] = system: ERK phosphorylation in H358 cells; experiment: Inhibitory activity against ERK phosphorylation in H358 cells (HTRF Phospho-ERK1/2 kit); assay type: cell-based; details: Homo sapiens, NCI-H358; starved H358 cells, 1 h compound incubation; read-out: H358 cell ERK phosphorylation IC50
Method: H358 cells purchased from Nanjing Cobioer Biosciences Co., Ltd., 1640 medium purchased from Biological industries, fetal bovine serum purchased from Biosera, and Advanced Phospho-ERK1/2 (THR202/TYR204) KIT purchased from Cisbio.
• 1. H358 cells were plated in a transparent 96-well cell culture plate, with 80 μL of cell suspension per well, each well containing 10000 H358 cells. The cell plate was incubated in a CO2 incubator at 37° C. overnight. • 2. The cell supernatant was discarded, and a starvation medium (1640+0.02% fetal bovine serum+1% […]) was added at 80 μL/well. The cell plate was then incubated in a CO2 incubator for cell starvation treatment overnight; • 3. Each test compound was diluted with 100% DMSO to 4 mM as the first concentration, and then diluted in a 5-fold gradient to the 8th concentration (i.e., from 4 mM to […]) using a pipette. 1 μL of the compound was then added to 79 μL of cell starvation medium. The mixture was mixed well, and then the compound solution was added to the corresponding wells of the cell plate at 20 μL/well. The cell plate was then put back to the CO2 incubator for incubation for another 1 h. At that time, the concentration of the compound ranged from 10 μM to 0.0256 nM, with the concentration of DMSO being 0.25%. • 4. After the incubation was completed, the cell supernatant was discarded, and a cell lysis buffer was added at 50 μL/well. The plate was then incubated with shaking at room temperature for 30 min. 5. The Phospho-ERK1/2 Eu Cryptate antibody and Phospho-ERK1/2 d2 antibody were diluted in a 20-fold gradient with the Detection buffer. • 6. 16 μL of the cell lysate supernatant from each well was transferred to a new 384-well white microplate, and then 2 μL of the Phospho-ERK1/2 Eu Cryptate antibody dilution and 2 μL of the Phospho-ERK1/2 d2 antibody dilution were added to each well. The mixture was incubated at room temperature for 4 h. • 7. After the incubation was completed, HTRF values were read using a multimode microplate reader, with an excitation wavelength of 320 nm and emission wavelengths of 615 nm and 665 nm.
The original data were converted to inhibition rates and then the IC50 values were obtained by curve fitting using a four-parameter method.

IC50 [1] [nM] | IC50 [2] [nM] | IC50 (SHP2) [nM] | IC50 [3] [nM] | SMILES
19.3 | 38.9 | 1.09 | – | Cc1nc(Sc2ccnc(N)c2Cl)cnc1N1CCC2(CC1)Cn1nccc1C2N (stereo not drawn) [Compound 10]
35 | 62.1 | 2.28 | 55.6 | Cc1nc(N2CCC3(CC2)Cn2nccc2C3N)c(CO)nc1Sc1cccc(Cl)c1Cl (stereo not drawn) [Compound 3]
– | – | 3.99 | – | CONc1nccc(Sc2nc(CO)c(N3CCC4(CC3)Cn3nccc3C4N)nc2C)c1Cl (stereo not drawn) [Compound 8]
48.5 | 43.1 | 3.24 | 45.3 | Cc1nc(N2CCC3(CC2)Cn2nccc2C3N)c(C(N)=O)nc1Sc1ccnc(N)c1Cl (stereo not drawn) [Compound 5]
